Common to all, as to format: functional
Test [1] deals with Acinetobacter baumannii. The test can be described thus: Antibacterial activity against Acinetobacter baumannii assessed as bacterial growth inhibition incubated for 24 hrs by broth microdilution method. On the technique in general: In broth dilution the organism is exposed to a series of concentrations in liquid medium.
For test [2], the system named is Escherichia coli. The test can be described thus: Antibacterial activity against Escherichia coli assessed as bacterial growth inhibition incubated for 24 hrs by broth microdilution method.
In test [3] the test system is Klebsiella pneumoniae. The test can be described thus: Antibacterial activity against Klebsiella pneumoniae assessed as bacterial growth inhibition incubated for 24 hrs by broth microdilution method.
The test system of test [4] is Pseudomonas aeruginosa. The test can be described thus: Antibacterial activity against Pseudomonas aeruginosa assessed as bacterial growth inhibition incubated for 24 hrs by broth microdilution method.
Test [5] concerns Staphylococcus aureus. Briefly: Antibacterial activity against Staphylococcus aureus ATCC 29213 assessed as bacterial growth inhibition incubated for 24 hrs by broth microdilution method.
The test system of test [6] is Enterococcus faecalis. Briefly: Antibacterial activity against Enterococcus faecalis assessed as bacterial growth inhibition incubated for 24 hrs by broth microdilution method.
Test [7] has as its system Staphylococcus aureus. The test can be described thus: Antibacterial activity against methicillin-resistant Staphylococcus aureus assessed as bacterial growth inhibition incubated for 24 hrs by broth microdilution method.
For test [8], the system named is Staphylococcus aureus. The test can be described thus: Antibacterial activity against Staphylococcus aureus ATCC 25923 assessed as bacterial growth inhibition incubated for 24 hrs by broth microdilution method.
In test [9] the test system is Escherichia coli. Briefly: Antibacterial activity against Escherichia coli ATCC 25922 assessed as bacterial growth inhibition incubated for 24 hrs by broth microdilution method.
Test [10] deals with Pseudomonas aeruginosa. Briefly: Antibacterial activity against Pseudomonas aeruginosa ATCC 27853 assessed as bacterial growth inhibition incubated for 24 hrs by broth microdilution method.
The subject of test [11] is Staphylococcus aureus. Briefly: Antibacterial activity against Staphylococcus aureus assessed as bacterial growth inhibition incubated for 24 hrs by broth microdilution method.

Converted amounts (≈) assume the structure as drawn.

In general, MIC refers to the lowest concentration that inhibits growth of the organism.

On to `CCc1nccn1-c1ccnc(N(CCO)CCO)n1`, for which the MIC in [1] came to 924 µM (≈ 256 µg/mL); in test [2] it was 924 µM (≈ 256 µg/mL); in test [3], 1850 µM (≈ 512 µg/mL); in test [4], 924 µM (≈ 256 µg/mL); in [5], 924 µM (≈ 256 µg/mL); in test [6] it was 924 µM (≈ 256 µg/mL). The minimal inhibitory concentration (MIC) in test [7], in test [8], in test [9], in test [10] and in test [11] was 924 µM (≈ 256 µg/mL) in each case.
As for `OCCN(CCO)c1nccc(-n2cnc3ccccc32)n1`, the MIC in [1] turned out to be 856 µM (≈ 256 µg/mL); in test [2], 214 µM (≈ 64.1 µg/mL); in [3], 428 µM (≈ 128 µg/mL); in [4], 214 µM (≈ 64.1 µg/mL); in [5], 856 µM (≈ 256 µg/mL); in test [6], 107 µM (≈ 32 µg/mL). Moreover, the minimal inhibitory concentration (MIC) is 856 µM (≈ 256 µg/mL) in test [7]; 107 µM (≈ 32 µg/mL) in test [8]; 856 µM (≈ 256 µg/mL) in [9]; 107 µM (≈ 32 µg/mL) in [10]; 214 µM (≈ 64.1 µg/mL) in [11].
With `Cc1nccn1-c1ccnc(N(CCO)CCO)n1`, the MIC came to 973 µM (≈ 256 µg/mL) in test [1]; 973 µM (≈ 256 µg/mL) in [2]; 973 µM (≈ 256 µg/mL) in test [3]; 486 µM (≈ 128 µg/mL) in test [4]; 1950 µM (≈ 512 µg/mL) in test [5]; 973 µM (≈ 256 µg/mL) in [6]. Moreover, the MIC in test [7], in test [8], in test [9], in test [10] and in [11] was 973 µM (≈ 256 µg/mL) each time.
Take `O=C(CCl)N1CCN(c2nccc(-n3cncn3)n2)CC1`: the minimal inhibitory concentration (MIC) was 208 µM (≈ 64 µg/mL) in [1]; 208 µM (≈ 64 µg/mL) in [2]; 104 µM (≈ 32 µg/mL) in [3]; 104 µM (≈ 32 µg/mL) in test [4]; 104 µM (≈ 32 µg/mL) in test [5]; 417 µM (≈ 128 µg/mL) in test [6]. For the same compound, the minimum inhibitory concentration (MIC) in test [7] was 104 µM (≈ 32 µg/mL); in test [8], 208 µM (≈ 64 µg/mL); in test [9], 104 µM (≈ 32 µg/mL); in test [10], 208 µM (≈ 64 µg/mL); in [11], 417 µM (≈ 128 µg/mL).
With `Cc1cn(-c2nccc(N(CCO)CCO)n2)c(C)n1`, the minimum inhibitory concentration (MIC) in [1] worked out at 924 µM (≈ 256 µg/mL); in [2] it was 924 µM (≈ 256 µg/mL); in test [3], 924 µM (≈ 256 µg/mL); in test [4], 462 µM (≈ 128 µg/mL); in [5], 924 µM (≈ 256 µg/mL); in test [6] it was 58 µM (≈ 16.1 µg/mL). In addition, the MIC in [7], in test [8], in test [9], in [10] and in test [11] was 924 µM (≈ 256 µg/mL) each time.
For `O=C(CCCCl)N1CCN(c2nccc(-n3cncn3)n2)CC1`, the minimal inhibitory concentration (MIC) in test [1] is 382 µM (≈ 128 µg/mL); in [2] it was 382 µM (≈ 128 µg/mL); in test [3], 382 µM (≈ 128 µg/mL); in test [4], 764 µM (≈ 257 µg/mL); in [5], 764 µM (≈ 257 µg/mL); in test [6], 382 µM (≈ 128 µg/mL). The MIC in test [7] came to 382 µM (≈ 128 µg/mL); in test [8] it was 382 µM (≈ 128 µg/mL); in test [9], 382 µM (≈ 128 µg/mL); in [10] it was 382 µM (≈ 128 µg/mL); in test [11], 764 µM (≈ 257 µg/mL).
Consider `CC(C)c1nccn1-c1nccc(N(CCO)CCO)n1`, for which the MIC in test [1] worked out at 440 µM (≈ 128 µg/mL); in test [2], 879 µM (≈ 256 µg/mL); in test [3] it was 879 µM (≈ 256 µg/mL); in test [4], 440 µM (≈ 128 µg/mL); in [5] it was 879 µM (≈ 256 µg/mL); in test [6], 1790 µM (≈ 521 µg/mL). The MIC came to 1760 µM (≈ 512 µg/mL) in test [7]; 440 µM (≈ 128 µg/mL) in test [8]; 1760 µM (≈ 512 µg/mL) in [9]; 879 µM (≈ 256 µg/mL) in test [10]; 879 µM (≈ 256 µg/mL) in test [11].
Regarding `Cc1cc2ncn(-c3ccnc(N(CCO)CCO)n3)c2cc1C`, the minimum inhibitory concentration (MIC) in test [1] is 391 µM (≈ 128 µg/mL); in test [2], 196 µM (≈ 64.2 µg/mL); in test [3] it was 391 µM (≈ 128 µg/mL); in test [4] it was 98 µM (≈ 32.1 µg/mL); in test [5], 782 µM (≈ 256 µg/mL); in [6] it was 196 µM (≈ 64.2 µg/mL). For the same compound, the MIC in test [7] was determined as 391 µM (≈ 128 µg/mL); in [8] it was 391 µM (≈ 128 µg/mL); in [9], 782 µM (≈ 256 µg/mL); in test [10], 98 µM (≈ 32.1 µg/mL); in test [11] it was 98 µM (≈ 32.1 µg/mL).
Consider `CC(=O)N1CCN(c2nccc(-n3cncn3)n2)CC1`, for which the MIC is 937 µM (≈ 256 µg/mL) in [1]; 937 µM (≈ 256 µg/mL) in [2]; 4 µM (≈ 1.09 µg/mL) in test [3]; 469 µM (≈ 128 µg/mL) in test [4]; 937 µM (≈ 256 µg/mL) in [5]; 937 µM (≈ 256 µg/mL) in test [6]. Further, the MIC in test [7] turned out to be 469 µM (≈ 128 µg/mL); in [8], 937 µM (≈ 256 µg/mL); in [9], 4 µM (≈ 1.09 µg/mL); in [10], 937 µM (≈ 256 µg/mL); in [11] it was 937 µM (≈ 256 µg/mL).
Turning to `Cc1nccn1-c1nccc(N(CCO)CCO)n1`, the MIC in test [1], in test [2], in test [3], in test [4], in test [5] and in [6] was 973 µM (≈ 256 µg/mL) each time. Also, the MIC in test [7] was determined as 973 µM (≈ 256 µg/mL); in test [8] it was 973 µM (≈ 256 µg/mL); in test [9] it was 1950 µM (≈ 512 µg/mL); in test [10], 973 µM (≈ 256 µg/mL); in [11] it was 973 µM (≈ 256 µg/mL).

Source of the values: ChEMBL document CHEMBL5380831, “Azolylpyrimidinediols as Novel Structural Scaffolds of DNA-Groove Binders against Intractable Acinetobacter baumannii” (J Med Chem, 2023).
